Experimental data published in patent US7678829B2, “Oculoselective drugs and prodrugs” (QLT Inc., priority 2004, dated 2010).

Experiments:
albino rabbits = experiment: Corneal anesthesia measurements (Cochet's esthesiometer); format: in vivo, rabbit
Description: The effect of a 50 μl single instillation of 0.3%, 0.5%, 1.0% and 2.0% solution of compound 7 on corneal anesthesia, after a single instillation in the conjunctival sac of the right eyes of albino rabbits (N=5) was measured using a Cochet's esthesiometer (nylon thread: 0.12 mm diameter, 10 mm long). Corneal anesthesia was evaluated by the number of comeal mechanical stimuli necessary to induce a blinking reflex. The effect of drug solutions was compared with sterile 0.9% NaCl treated animals (control group) and 0.4% oxybuprocaine (Novesine®).

[1] = Accelerated stability test of 0.25% solutions in acetate buffer, HPLC; format: physicochemical; conditions: for projected shelf-life: conventional eye drop formulation, at room temperature
Description: An accelerated stability test was conducted on 0.25% solutions of compounds 6, 7, and 8 (Example 2) at 40° C. for 1, 2, 3, 4, 8 and 12 weeks and monitored for the disappearance of the prodrugs and appearance of the parent compound by HPLC analysis. The parent compound (referred to hereinafter as compound 4) has the formula: […]
The respective compounds were dissolved in an acetate buffer, pH 3.5 (0.018% sodium acetate, 0.135% acetic acid, 0.9% sodium chloride in water for injection) to obtain 0.25% solution. The stability of the compounds was determined at 40° C. for 1, 2, 3, 4, 8, and 12 weeks. The concentration of the parent compound as well as the concentrations of the prodrug compounds 6, 7, and 8 at each time point by HPLC method.

[2] = Ocular bioavailability, aqueous humor analyzed by HPLC; format: in vivo; conditions: rabbit aqueous humor
Description: Three rabbits were used per time point. The 50 μl test substance was administered in a single instillation using a micropipette into the conjunctival sac of the right and the left eyes. The rabbits were anesthetized with an intramuscular injection of Imalgéne® 1000 (ketamine 32 mg/kg), and Rompun® (xylasine 7.5 mg/kg). They were then desanguinated by cardiac puncture and thereafter euthanized by an overdose of pentobarbital. Immediately after death, the eyes were micro-dissected to obtain: cornea (C), aqueous humor (AH), and iris-ciliary body (ICB). All samples were stored at −80° C. Only aqueous humor (AH) samples were analyzed by HPLC.

Row | Compound | corneal sensitivity (local anesthetic activity) (albino rabbits; at 1%) | projected shelf-life [1] | level of the prodrug itself in aqueous humor [2] | corneal sensitivity (local anesthetic activity) (albino rabbits; 50 μl single instillation of 0.3%, 0.5%, 1.0% and 2.0% solution, compared to 0.4% oxybuprocaine) | relative stability (FIG. 1, percent degradation) ([1]; 0.25% solution, 40° C., pH 3.5, compared among compounds 6, 7 and 8)
1 | Cc1cc(O)c(O)cc1C(=O)OCC(CNC(C)(C)CNC(=O)C1CCOC1)OC(=O)C(C)(C)C (centres unmarked) [Compound 6, reference compound] | complete comeal sensitivity loss | 2.6 months | below the detection limit | – | –
2 | Cc1cc(O)c(O)cc1C(=O)OCC(CNC(C)(C)CNC(=O)C1CCOC1)OC(=O)C1(C)CC1 (centres unmarked) [Compound 7, 4,5-Dihydroxy-2-methyl-benzoic acid 3-{1,1-dimethyl-2-[(tetrahydro-furan-3-carbonyl)-amino]-ethylamino}-2-(1-methyl-cyclopropanecarbonyloxy)-propyl ester] | – | at least 18 months | also present in aqueous humor | no comeal sensitivity | most stable
3 | Cc1cc(O)c(O)cc1C(=O)OCC(CNC(C)(C)CNC(=O)C1CCOC1)OC(=O)C1CC1(C)C (centres unmarked) [Compound 8, 4,5-dihydroxy-2-methyl-benzoic acid 2-(2,2-dimethyl-cyclopropanecarbonyloxy)-3-{1,1-dimethyl-2-[(tetrahydro-furan-3-carbonyl)-amino]-ethylamino}-propyl ester] | – | 7.9 months | – | – | –
